Assay results: patent publication US20010047099A1, “4-aminopicolinates and their use as herbicides” (priority 2000, published 2001)

Key:
Type in all cases: in vivo
[1] = system: yellow nutsedge (Cyperus esculentus); assay: Postemergence herbicidal activity; conditions: Table 3; weeds in rice; rate 250 ppm
Procedure, shortened: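 Greenhouse plants at first or second true leaf stage sprayed to coverage with compound in acetone/water/isopropanol/DMSO/crop oil/surfactant mixture; 1 ppm ≈ 1 g/Ha. Plants sub-irrigated afterward. Injury scored visually after 2 weeks versus untreated plants, 0 (none) to 100% (complete kill).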

[2] = system: sicklepod (Cassia obtusifolia); assay: Range & Pasture Crop Testing (postemergence track sprayer); conditions: Table 8; salts of Compound 1; dose for 80 percent control
Procedure, shortened: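 Postemergence track-sprayer application at 187 L/ha, compounds formulated in 97:3 acetone:DMSO with 0.25% X-77, five rates (X serially diluted to 1/16×). Visual percent control (0–100 scale, burn down) rated 3 weeks after treatment; GR50/GR80 derived by probit analysis.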

[3] = system: wheat (Triticum aestivum); assay: Postemergence herbicidal activity, selectivity to wheat; conditions: Table 5; crop (wheat); rate 250 ppm
Method: Seeds of the desired test plant species were planted in Grace-Sierra MetroMix® 306 planting mixture, which typically has a pH of 6.0 to 6.8 and an organic matter content of about 30 percent, in plastic pots with a surface area of 64 square centimeters. When required to ensure good germination and healthy plants, a fungicide treatment and/or other chemical or physical treatment was applied. The plants were grown for 7-21 days in a greenhouse with an approximate 15 hr photoperiod which was maintained at about 23-29° C. during the day and 22-28° C. during the night. Nutrients and water were added on a regular basis and supplemental lighting was provided with overhead metal halide 1000-Watt lamps as necessary. The plants were employed for testing when they reached the first or second true leaf stage.
A weighed amount, determined by the highest rate to be tested, of each test compound was placed in a 20 mL glass vial and was dissolved in 4 mL of a 97:3 v/v (volume/volume) mixture of acetone and dimethyl sulfoxide (DMSO) to obtain concentrated stock solutions. […] The concentrated stock solutions obtained were diluted with an aqueous mixture containing acetone, water, isopropyl alcohol, DMSO, Atplus 411F crop oil concentrate, and Triton X-155 surfactant in a 48.5:39:10:1.5:1.0:0.02 v/v ratio to obtain spray solutions of known concentration. The solutions containing the highest concentration to be tested were prepared by diluting 2 mL aliquots of the stock solution with 13 mL of the mixture and lower concentrations were prepared by serial dilution of the stock solution. Approximately 1.5 mL aliquots of each solution of known concentration were sprayed evenly onto each of the test plant pots using a DeVilbiss atomizer driven by compressed air pressure of 2 to 4 psi ([…]) to obtain thorough coverage of each plant. Control plants were sprayed in the same manner with the aqueous mixture. In this test an application rate of 1 ppm results in the application of approximately 1 g/Ha.
The treated plants and control plants were placed in a greenhouse as described above and watered by sub-irrigation to prevent wash-off of the test compounds. After 2 weeks the condition of the test plants as compared with that of the untreated plants was determined visually and scored on a scale of 0 to 100 percent where 0 corresponds to no injury and 100 corresponds to complete kill.

[4] = system: crested wheatgrass (Agropyron cristatum) (grass crop); assay: Range & Pasture Crop Testing (postemergence track sprayer); conditions: Table 9, rate 70 g/Ha, 3 weeks after treatment
Method: (§1) Rates are calculated based upon 5 doses being applied. The high rate (X), followed by serial dilutions of 1/2×, 1/4×, 1/8× and 1/16×. Compound requirements are based upon the 187 L/ha carrier volume, specifications of the delivery system (Mandel track sprayer) and generating 24 mL of technical spray material to allow for the dilutions and overage in the sprayer. [formula]
(§2) All technical materials were formulated in 97:3 (acetone:DMSO) with 0.25% X-77. The total volume of solvent is maintained at less than 7%. An overhead Mandel track sprayer calibrated to deliver 187 L/ha was used for all treatment applications (postemergence). Picloram was included as a comparison treatment.
(§3) Solutions were applied with a mechanized track-sprayer at the following settings:
(§4) Spray height: 17 inches above top of plants
(§5) This provides an application volume of 187 L/ha.
(§6) Percent weed control (burn down) was evaluated 3 weeks after treatment. Visual control on a 0-100 linear scale was used, with 0 representing no control and 100 representing total control. Burn down ratings were taken for annual and perennial weed species.

[5] = system: common ragweed (Ambrosia artemisiifolia); assay: as above; conditions: Table 9; rate 70 g/Ha; 3 week evaluation
Method: as §1, §2, §3, §4, §5, §6

[6] = system: broadleaf dock (Rumex obtusifolia); assay: as above; conditions: Table 9; rate 70 g/Ha; 3 weeks after treatment
Method: as §1, §2, §3, §4, §5, §6

| Compound | post emergent evaluation - % control CYPES [1] [%] | Post-emergent GR80 CASOB [2] [g/Ha] | Post-emergent Evaluation - % control TRZAS [3] [%] | Post-emergent Evaluation - % control AGRCR [4] [%] | Post-emergent Evaluation - % control AMBEL [5] [%] | Post-emergent Evaluation - % control RUMOB [6] [%] |
| --- | --- | --- | --- | --- | --- | --- |
| Nc1cc(Cl)nc(C(=O)O)c1Cl [Compound 1, 4-Amino-3,6-dichloropyridine-2-carboxylic acid] | 75 | 11 |  |  |  |  |
| Nc1cc(Br)nc(C(=O)O)c1Cl [Compound 14, 4-Amino-6-bromo-3-chloropyridine-2-carboxylic acid] | 75 |  | 0 |  |  |  |
| COC(=O)c1nc(Cl)cc(N)c1Cl [Compound 3, methyl 4-amino-3,6-dichloropyridine-2-carboxylate] |  |  |  | 30 | 100 | 100 |
